Results on 24 molecules are retold here after ChEMBL document CHEMBL1152243, “Preliminary SAR studies on non-apamin-displacing 4-(aminomethylaryl)pyrrazolopyrimidine K(Ca) channel blockers” (Bioorg Med Chem Lett, 2008).

The source made the active and inactive calls. The calls are words filed in the database; no cut-off is given here. Some results are limits rather than exact numbers.

What all share (format): cell-based
In experiment [1] the target is T1, Small conductance calcium-activated potassium channel protein 3 (Homo sapiens, UniProt Q9UGI6). Nature of the experiment: Inhibition of Kca2.3 channel expressed in HEK293 cells at 30 uM by thallium flux assay.
T1 sequence (Q9UGI6 whole entry): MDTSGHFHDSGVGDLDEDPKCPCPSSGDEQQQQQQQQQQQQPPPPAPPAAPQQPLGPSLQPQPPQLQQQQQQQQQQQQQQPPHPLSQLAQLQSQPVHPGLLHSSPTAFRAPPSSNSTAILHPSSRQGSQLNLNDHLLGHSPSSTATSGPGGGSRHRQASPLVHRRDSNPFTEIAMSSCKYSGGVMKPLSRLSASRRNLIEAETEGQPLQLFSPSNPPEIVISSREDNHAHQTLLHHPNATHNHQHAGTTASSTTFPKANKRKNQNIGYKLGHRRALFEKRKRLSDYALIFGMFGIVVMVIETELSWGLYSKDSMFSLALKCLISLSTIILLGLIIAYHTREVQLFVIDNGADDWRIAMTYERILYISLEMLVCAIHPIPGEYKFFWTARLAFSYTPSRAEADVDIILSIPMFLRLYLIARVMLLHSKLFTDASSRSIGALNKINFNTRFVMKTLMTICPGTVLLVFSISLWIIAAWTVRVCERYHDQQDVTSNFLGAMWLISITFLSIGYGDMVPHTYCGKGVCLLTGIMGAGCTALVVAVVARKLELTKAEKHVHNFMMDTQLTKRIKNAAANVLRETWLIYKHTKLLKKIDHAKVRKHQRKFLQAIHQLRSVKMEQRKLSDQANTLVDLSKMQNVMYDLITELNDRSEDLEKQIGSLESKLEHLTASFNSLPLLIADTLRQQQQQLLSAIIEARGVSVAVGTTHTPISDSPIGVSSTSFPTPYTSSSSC
Experiment [2] has as its target T1, Small conductance calcium-activated potassium channel protein 3. Put plainly: Inhibition of Kca2.3 channel expressed in HEK293 cells by thallium flux assay.
Experiment [3] shares this target. Put plainly: Inhibition of Kca2.3 channel expressed in HEK293 cells by electrophysiology assay.
Experiment [4] addresses Small conductance calcium-activated potassium channel protein 1 (Homo sapiens, UniProt Q92952). Nature of the experiment: Inhibition of Kca2.1 channel expressed in HEK293 cells by thallium flux assay.
Experiment [5] concerns the target Small conductance calcium-activated potassium channel protein 2 (Homo sapiens, UniProt Q9H2S1). Nature of the experiment: Inhibition of Kca2.2 channel expressed in HEK293 cells by thallium flux assay.
Experiment [6] concerns the target T1, Small conductance calcium-activated potassium channel protein 3. Put plainly: Displacement of [125I]apamin from Kca2.3 channel expressed in HEK293 cells by scintillation proximity assay. In general terms: In a radioligand displacement assay an active substance lowers the binding of a labelled ligand.

Sequence of Small conductance calcium-activated potassium channel protein 1 (Q92952 whole entry): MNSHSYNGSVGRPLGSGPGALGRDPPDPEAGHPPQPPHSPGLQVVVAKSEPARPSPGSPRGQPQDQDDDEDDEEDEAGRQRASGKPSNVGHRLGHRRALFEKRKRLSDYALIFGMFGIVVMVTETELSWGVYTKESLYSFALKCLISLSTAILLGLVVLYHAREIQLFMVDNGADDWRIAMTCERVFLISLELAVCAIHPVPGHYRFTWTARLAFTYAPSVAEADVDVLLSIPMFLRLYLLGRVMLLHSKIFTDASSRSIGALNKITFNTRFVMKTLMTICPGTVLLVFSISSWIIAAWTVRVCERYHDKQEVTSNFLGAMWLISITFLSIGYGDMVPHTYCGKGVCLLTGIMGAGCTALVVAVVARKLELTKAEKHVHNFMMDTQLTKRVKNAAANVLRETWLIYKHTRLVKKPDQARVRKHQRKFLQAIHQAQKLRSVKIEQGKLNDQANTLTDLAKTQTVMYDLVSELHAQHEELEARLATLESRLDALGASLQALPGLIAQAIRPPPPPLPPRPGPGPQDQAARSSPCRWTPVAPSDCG
Sequence of Small conductance calcium-activated potassium channel protein 2 (Q9H2S1 whole entry): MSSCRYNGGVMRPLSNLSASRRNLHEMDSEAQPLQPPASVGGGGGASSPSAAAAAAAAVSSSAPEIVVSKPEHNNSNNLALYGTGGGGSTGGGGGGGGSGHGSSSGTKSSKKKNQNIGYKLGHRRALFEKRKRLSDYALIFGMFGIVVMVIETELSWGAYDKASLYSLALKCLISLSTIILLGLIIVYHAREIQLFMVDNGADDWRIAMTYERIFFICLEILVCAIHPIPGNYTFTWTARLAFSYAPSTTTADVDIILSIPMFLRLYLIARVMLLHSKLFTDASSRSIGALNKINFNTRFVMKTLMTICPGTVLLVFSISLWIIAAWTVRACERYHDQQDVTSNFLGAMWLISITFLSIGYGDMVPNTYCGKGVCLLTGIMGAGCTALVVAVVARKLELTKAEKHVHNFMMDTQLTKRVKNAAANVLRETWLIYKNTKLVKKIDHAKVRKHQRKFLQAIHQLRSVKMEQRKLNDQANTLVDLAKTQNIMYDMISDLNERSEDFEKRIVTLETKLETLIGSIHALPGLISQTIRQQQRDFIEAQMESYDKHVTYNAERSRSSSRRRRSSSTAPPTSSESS

`FC(F)(F)Oc1ccccc1CNc1cc(Cl)nc2ccnn12`: the inhibition (as a rule, the drop in the measured response relative to a control, in per cent) in experiment [1] is 87%. Moreover, the IC50 (as a rule, the concentration at which inhibition is half-maximal) in experiment [2] was determined as 10 µM.
As for `Clc1cc(NCc2ccccc2)n2nccc2n1`, the inhibition in experiment [1] is 113%. Further, the half-inhibitory concentration (IC50) in experiment [3] was 1.6 µM; in experiment [4] it was 1.19 µM; in experiment [2] it was 1.1 µM; in experiment [5] it was 1.1 µM.
Consider `Clc1cc(Cl)cc(CNc2cc(Cl)nc3ccnn23)c1`, for which the inhibition in experiment [1] worked out at 43%. Besides, the IC50 in experiment [2] was above 30 µM.
For the molecule `Cc1ccccc1CNc1cc(Cl)nc2ccnn12`, the inhibition in experiment [1] was 75%. Moreover, the half-inhibitory concentration (IC50) in experiment [2] came to 14.6 µM.
On the same counts, the results for `Clc1cc(NCc2ccc(Oc3ccccc3)cc2)n2nccc2n1` are 23% and above 30 µM.
Turning to `Clc1cccc(CNc2cc(Cl)nc3ccnn23)c1`, the inhibition in experiment [1] stood at 113%. Also, the IC50 in experiment [2] stood at 5.2 µM.
The matching figures for `Clc1cc(NCc2ccc(Cl)c(Cl)c2)n2nccc2n1`: 25% and above 30 µM.
The matching figures for `Cc1ccc(CNc2cc(Cl)nc3ccnn23)cc1`: 46% and above 30 µM.
Take `Clc1cc(NCc2ccccc2Cl)n2nccc2n1`: the inhibition in experiment [1] was 62%. Moreover, in experiment [2], the IC50 amounted to 19.1 µM.
As to `C[C@@H](Nc1cc(Cl)nc2ccnn12)c1ccccc1`, in experiment [2], the IC50 came to 1 µM.
For the molecule `FC(F)(F)c1ccccc1CNc1cc(Cl)nc2ccnn12`, in experiment [1], the inhibition was determined as 50%. Further, the IC50 in experiment [2] is above 30 µM.
On to `COc1ccccc1CNc1cc(Cl)nc2ccnn12`, for which the inhibition in experiment [1] amounted to 74%. For the same molecule, in experiment [2], the IC50 was 15.9 µM.
With `O=[N+]([O-])c1cccc(CNc2cc(Cl)nc3ccnn23)c1`, in experiment [1], the inhibition is 96%. The IC50 in experiment [2] was found to be 7.9 µM.
On to `Clc1cc(NCc2ccncc2)n2nccc2n1`, for which the result in experiment [2] was inactive.
Turning to `FC(F)(F)c1cccc(CNc2cc(Cl)nc3ccnn23)c1`, the inhibition in experiment [1] was 80%. Also, in experiment [2], the IC50 was determined as 14.6 µM.
Take `C[C@H](Nc1cc(Cl)nc2ccnn12)c1ccccc1`: the outcome in experiment [2] was inactive.
For `FC(F)(F)Oc1cccc(CNc2cc(Cl)nc3ccnn23)c1`, in experiment [1], the inhibition turned out to be 71%. Also, the IC50 in experiment [2] was found to be 11 µM.
As to `FC(F)(F)c1ccc(CNc2cc(Cl)nc3ccnn23)cc1`, the inhibition in experiment [1] stood at 43%. In addition, the IC50 in experiment [2] was above 30 µM.
In the case of `FC(F)(F)Oc1ccc(CNc2cc(Cl)nc3ccnn23)cc1`, the inhibition in experiment [1] came out at 62%. Moreover, the IC50 in experiment [2] came out at 15.4 µM.
Turning to `Clc1cc(NC(Cc2ccccc2)c2ccccc2)n2nccc2n1` (stereo unspecified), in experiment [2], the IC50 is 7.5 µM.
For `Clc1ccc(CNc2cc(Cl)nc3ccnn23)cc1`, the inhibition in experiment [1] was 30%. The half-maximal inhibitory concentration (IC50) in experiment [2] is above 30 µM.
`Clc1cc(NCc2cccs2)n2nccc2n1`: in experiment [1], the inhibition turned out to be 105%. The IC50 turned out to be 0.58 µM in experiment [3], 0.3 µM in experiment [4], 0.35 µM in experiment [2] and 0.53 µM in experiment [5]. In addition, in experiment [6], the outcome was inactive.
For the molecule `O=[N+]([O-])c1ccc(CNc2cc(Cl)nc3ccnn23)cc1`, in experiment [1], the inhibition turned out to be 25%. Besides, the half-inhibitory concentration (IC50) in experiment [2] was above 30 µM.
On the same counts, the results for `Cc1cccc(CNc2cc(Cl)nc3ccnn23)c1` are 91% and 10.7 µM.
